Active and inactive are the calls of the source.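 How the source made its calls: active means fitted curve reaches a 40% rise in fluorescent cells at or below the top valid dose; inactive means opposite-direction effect, or the rest.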
Test system: mTEFS fibroblasts autofluorescence, GFP-channel imaging, 3 days
Assay: compound fluorescence in GFP channel, mTEFS cells – imaging, mTEFS fibroblasts, cherry-pick, artefact control for X-chromosome reactivation project, dose response (AID 743396);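 on % fluorescent cells increase: raw share of Hoechst-counted cells scored GFP positive without control normalization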
Details: cells pretreated with 5-aza-dC

Row | SMILES | AC40
1 | CCCCN(C)C1=CC2=CC(=C(C#N)C#N)CCC2CC1 (centres undefined) | 3.44 µM
2 | O=CNc1ccc2c3c(cccc13)-c1ccccc1-2 | 8.57 µM
3 | CC(C)N1CCc2c(sc(NC(=O)c3ccc4ccccc4c3)c2C(N)=O)C1 | 10.6 µM
4 | Cc1nonc1NC(=O)CSc1nc2c(C)cccc2cc1C#N | 9.02 µM
5 | c1ccc(-c2cnn3c(-c4ccccc4)c(-c4ccccc4)nc3n2)cc1 | 2.58 µM
6 | CC1=NN(c2nc(N)nc(/C(C#N)=C/c3ccc([N+](=O)[O-])o3)n2)C(C)(C)C1 | 4.78 µM
7 | Cc1ccc2c(c1)c(/C=C/c1cc[n+](C)cc1)c(C)n2C | 10.1 µM
8 | CCN1C(=O)[C@@H]2Cc3c([nH]c4ccccc34)C(c3cc(OC)c(OC)c(OC)c3)N2C1=S (some centres undefined) | > 19.5 µM (inactive)
9 | COC1=CC(=O)c2nc(Cl)ccc2C1=O | 18.5 µM
10 | Cc1cc(C)c2cc3c(N)c(C(=O)Nc4c(C)[nH]c(=O)[nH]c4=O)sc3nc2c1 | > 19.5 µM (inactive)
11 | O=c1[nH]c(=O)n([C@H]2C[C@H](O)[C@@H](CO)O2)cc1C(F)(F)F | > 19.5 µM (inactive)
12 | N#C/C(=C/c1ccc(-c2ccc(S(N)(=O)=O)cc2)o1)c1nc2ccccc2s1 | 2.25 µM
13 | Nc1[nH]c2cc([N+](=O)[O-])ccc2c1-c1ccccn1 | 8.95 µM
14 | CCOC(=O)Cn1c(=O)c(-c2cc(Br)ccc2N)nc2ccccc21 | > 19.5 µM (inactive)
15 | CCN1/C(=C\c2ccc3ccccc3[n+]2CC)Sc2cc(C)ccc21 | 0.582 µM
16 | CCOC(=O)/C(=C/C=C1\Sc2cc(C)c(C)cc2N1CC)C(C)=O | 12.5 µM
17 | COC(=O)C1=C(C)NC(C)=C(C(=O)OC)C1C(=O)OCC(=O)c1ccc(F)cc1 | > 19.5 µM (inactive)
18 | Cc1ccc(-c2cn3nc(-c4ccccc4)c(-c4ccccc4)nc3n2)cc1 | 7.88 µM
19 | Nc1c(C(=O)c2cccs2)sc2nsc(SCCN3CCCCC3)c12 | 2.03 µM
20 | COc1cc2c3nnc(-c4ccc(F)cc4)c-3cn(Cc3ccccc3)c2cc1OC | 3.67 µM
21 | COc1ccc(CCNC(=O)c2ccc([N+](=O)[O-])cc2)cc1 | 18.8 µM
22 | Cc1cccc2cc3c(N)c(C(=O)N4CCCc5ccccc54)sc3nc12 | 10.2 µM
23 | Cc1ccc(NC(=O)/C=C/c2ccc([N+](=O)[O-])s2)c(C)c1 | 7.81 µM
24 | CN1/C(=C/C=C(C#N)C#N)C(C)(C)c2ccccc21 | 19.4 µM

Test system: not listed separately
Assay: as above
Details: mTEFS fibroblasts autofluorescence, GFP-channel imaging, 3 days; at 19.5 µM (top of the series)

Row | SMILES | % fluorescent cells increase
25 | Cc1ccc2[nH]c(=S)n(-c3cccnc3)c(=O)c2c1 | 0.016% (inactive)

Same assay, conditions: mTEFS fibroblasts autofluorescence, GFP-channel imaging, 3 days; at 19.5 µM (top of the series); cells pretreated with 5-aza-dC

Row | SMILES | % fluorescent cells increase
26 | COc1cccc2cc(C(=O)N(Cc3cccs3)CC3CCCO3)c(=O)oc12 (centres undefined) | 0.013% (inactive)
27 | CCCCCCCCN1C(=O)[C@H](CC(=O)N2CCSCC2)C[C@@]2(C(=O)OCC)CCCC=C12 | 0.056% (inactive)
28 | OC[C@@H]1Nc2ccc(C#Cc3ccccc3)cc2[C@H]2[C@@H]1CCN2Cc1nccs1 | 0.018% (inactive)
29 | NS(=O)(=O)c1cccc(-n2cnnn2)c1 | 0% (inactive)
30 | CC[C@]12c3[nH]c4cc(CCC(=O)N(C)C)ccc4c3CCN1C(=O)[C@@H](CC(=O)NCCC1=CCCCC1)C[C@@H]2C(=O)N1CCN(C(=O)c2ccco2)CC1 | 0.051% (inactive)
31 | COc1ccc(CN(C)C[C@H]2OCCCC[C@H](C)Oc3ccc(NC(=O)Nc4ccc(F)cc4)cc3C(=O)N([C@H](C)CO)C[C@H]2C)cc1 | 0.183% (inactive)
32 | O=C(Nc1ccccc1N1CCCCC1)c1cnccn1 | 0.039% (inactive)
33 | O=C(c1cnccn1)N1CC(=O)N2[C@H](CO)[C@@H](c3ccc(-c4cccc(F)c4)cc3)[C@@H]2C1 | -0.166% (inactive)
34 | [N-]=[N+]=CC(=O)C(O)(c1ccccc1)C(Cl)c1ccccc1 (centres undefined) | -0.007% (inactive)
35 | CCn1nc(C)cc1-c1nnc(Sc2ncc([N+](=O)[O-])s2)n1C | 0% (inactive)
36 | CC(O)(c1ccccc1)c1nc(-c2ccncc2)cs1 (centres undefined) | 0.38% (inactive)
37 | COc1ccc(NC(=O)CCc2ccccc2)cc1S(=O)(=O)N1CCCCC1 | 0.183% (inactive)
38 | CC1=C(Cl)C2=NS(=O)(=O)CCN2C=C1Cl | 1.51% (inactive)
39 | Cc1ccc(NCc2nnc(SCC(=O)NNC(=O)Cc3ccccc3)n2C)cc1 | 0.009% (inactive)
40 | Cn1c(=O)c(C#N)c(-c2ccc(F)cc2)c2cc(C(=O)c3cc(Cl)cc(Cl)c3O)cnc21 | 0.617% (inactive)
41 | O=c1[nH]cnc2c1ncn2[C@H]1CC[C@@H](CO)O1 | 0.722% (inactive)
42 | Cc1cccc(-c2ccc([C@@H]3[C@@H](CO)N4CCCCN(S(=O)(=O)c5ccccc5F)C[C@H]34)cc2)c1 | 8.13% (inactive)
43 | CCOC(=O)c1nn(-c2ccc3ccccc3c2)cc1O | 0.04% (inactive)
44 | Cc1ccccc1C1c2[nH]c3ccccc3c2CCN1Cc1cccn1-c1ncccn1 (centres undefined) | 0.002% (inactive)

Source: PubChem BioAssay AID743396 (Broad Institute, 2014)
